Measured values taken from patent US11072585B2 (PharmAkea, Inc., priority 2015, dated 2021).
Counter-ions that a name gives are not always drawn.

molecular target: human LOXL2 (Homo sapiens (Human), UniProt Q9Y4K0); assay: Human LOXL2 amine oxidase activity assay (Amplex Red); type: biochemical; details: concentrated conditioned media from CHO cells stably expressing human LOXL2; 2 h at 37° C. with compound; DAP substrate
Procedure: Example B-1: Human LOXL2 Amine Oxidase Activity Assay
LOXL2 amine oxidase activity is evaluated by measuring Amplex Red fluorescence using 10-20× concentrated conditioned media from CHO cells stably expressing human LOXL2. To assay for amine oxidase activity, 10 μL of the concentrated conditioned media is incubated with 2 μL of test compound in DMSO and 73 μL Assay Buffer (50 mM Borate Buffer, pH8) for 2 h at 37° C. After the 2 h incubation, 5 ul of 10 mM 1,5-Diaminopentane (DAP) diluted in Assay Buffer and 10 μl of Amplex Red Mix (8.5 μl Assay Buffer+0.5 μl of 10 mM Amplex Red+1 μl of 500 U/ml Horseradish Peroxidase) are added and the plate mixed and immediately placed on the FlexStaion for fluorescence measurements. Fluorescence is read in kinetic mode every 2 min for 1 hour at excitation=544 and emission=590. The amine oxidase activity is calculated from the slope of the linear portion of the curve.

human LOXL2, sequence (Q9Y4K0 26-774): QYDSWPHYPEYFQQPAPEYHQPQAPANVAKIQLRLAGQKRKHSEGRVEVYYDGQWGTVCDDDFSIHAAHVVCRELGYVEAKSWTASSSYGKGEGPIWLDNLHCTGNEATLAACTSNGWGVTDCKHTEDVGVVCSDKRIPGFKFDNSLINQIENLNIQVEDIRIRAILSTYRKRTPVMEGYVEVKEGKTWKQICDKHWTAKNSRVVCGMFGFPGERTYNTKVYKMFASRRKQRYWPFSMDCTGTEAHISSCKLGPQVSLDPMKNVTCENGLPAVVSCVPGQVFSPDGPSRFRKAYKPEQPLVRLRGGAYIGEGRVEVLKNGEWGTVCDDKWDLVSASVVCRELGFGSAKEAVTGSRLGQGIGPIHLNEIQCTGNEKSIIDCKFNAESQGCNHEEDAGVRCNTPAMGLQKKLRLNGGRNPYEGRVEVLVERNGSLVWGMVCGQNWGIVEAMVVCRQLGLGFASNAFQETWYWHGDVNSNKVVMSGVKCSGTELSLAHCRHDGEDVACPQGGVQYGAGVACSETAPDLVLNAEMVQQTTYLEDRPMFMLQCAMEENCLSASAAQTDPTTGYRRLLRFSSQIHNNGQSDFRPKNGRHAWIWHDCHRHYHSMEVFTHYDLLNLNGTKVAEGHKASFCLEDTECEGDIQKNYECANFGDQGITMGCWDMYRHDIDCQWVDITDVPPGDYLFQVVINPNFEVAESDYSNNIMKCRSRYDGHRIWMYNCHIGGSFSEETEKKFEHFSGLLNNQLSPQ

Question: Which IC50 does the source give for `NCc1cc(Oc2cccc(C(=O)Nc3cncnc3)c2)nc(C(F)(F)F)c1` [Compound 1-226, 3-((4-(Aminomethyl)-6-(trifluoromethyl)pyridin-2-yl)oxy)-N-(pyrimidin-5-yl)benzamide hydrochloride] here?
Answer: < 300 nM

Question: How did the IC50 turn out when `NCc1cc(Oc2cccc(C(=O)Nc3ccccc3N)c2)nc(C(F)(F)F)c1` [Compound 1-225, 3-((4-(Aminomethyl)-6-(trifluoromethyl)pyridin-2-yl)oxy)-N-(2-aminophenyl)benzamide hydrochloride] was run?
Answer: < 300 nM

Question: `NCc1cc(Oc2cccc(C(=O)N3CCC[C@H](CO)C3)c2)nc(C(F)(F)F)c1` [Compound 1-203, (S)-(3-((4-(Aminomethyl)-6-(trifluoromethyl)pyridin-2-yl)oxy)phenyl)(3-(hydroxymethyl)piperidin-1-yl)methanone hydrochloride] was tested. Which IC50 did it give?
Answer: < 300 nM

Question: Which IC50 does the source give for `NCc1cc(Oc2cccc(C(=O)N3C[C@@H](F)[C@@H](O)C3)c2)nc(C(F)(F)F)c1` (single isomer, unassigned) [Compound 1-251, (R,S) or (S,R)-cis-(3-((4-(Aminomethyl)-6-(trifluoromethyl)pyridin-2-yl)oxy)phenyl)(3-fluoro-4-hydroxypyrrolidin-1-yl)methanone hydrochloride] here?
Answer: < 300 nM

Question: For `CCc1ccc(NC(=O)c2cccc(Oc3cc(CN)cc(C(F)(F)F)n3)c2)cc1` [Compound 1-246, 3-((4-(Aminomethyl)-6-(trifluoromethyl)pyridin-2-yl)oxy)-N-(4-ethylphenyl)benzamide hydrochloride], which IC50 is on record?
Answer: < 300 nM

Question: For `NCc1cc(Oc2cccc(COc3ccccc3)c2)nc(C(F)(F)F)c1` [Compound 1-4, (2-(3-(Phenoxymethyl)phenoxy)-6-(trifluoromethyl)pyridin-4-yl)methanamine trifluoroacetate], which IC50 is on record?
Answer: < 300 nM

Question: Which IC50 does the source give for `NCc1cc(Oc2cccc(C(=O)N3C[C@@H](F)[C@@H](O)C3)c2)nc(C(F)(F)F)c1` (single isomer, unassigned) [Compound 1-250, (R,S) or (S,R)-cis-(3-((4-(Aminomethyl)-6-(trifluoromethyl)pyridin-2-yl)oxy)phenyl)(3-fluoro-4-hydroxypyrrolidin-1-yl)methanone hydrochloride] here?
Answer: < 300 nM

Question: Which IC50 does the source give for `NCc1cc(-n2ccccc2=O)nc(C(F)(F)F)c1` [Compound 1-161, 4′-(Aminomethyl)-6′-(trifluoromethyl)-2H-[1,2′-bipyridin]-2-one hydrochloride] here?
Answer: > 1000 nM

Question: For `CC1(O)CCN(C(=O)c2cccc(Oc3cc(CN)cc(C(F)(F)F)n3)c2)CC1` [Compound 1-205, (3-((4-(Aminomethyl)-6-(trifluoromethyl)pyridin-2-yl)oxy)phenyl)(4-hydroxy-4-methylpiperidin-1-yl)methanone hydrochloride], which IC50 is on record?
Answer: < 300 nM

Question: With `NCc1cc(NCc2cccc(C(=O)N3CC[C@H](O)C3)c2)nc(C(F)(F)F)c1` [Compound 1-237, (S)-(3-(((4-(Aminomethyl)-6-(trifluoromethyl)pyridin-2-yl)amino)methyl)phenyl)(3-hydroxypyrrolidin-1-yl)methanone hydrochloride] as the compound, how does the IC50 read?
Answer: 300 to 1000 nM

Question: `NCc1cc(Oc2cccc(C(=O)NCCCCc3cn(-c4ccccc4)nn3)c2)nc(C(F)(F)F)c1` [Compound 1-217, 3-((4-(Aminomethyl)-6-(trifluoromethyl)pyridin-2-yl)oxy)-N-(4-(1-phenyl-1H-1,2,3-triazol-4-yl)butyl)benzamide hydrochloride] was tested. Which IC50 did it give?
Answer: < 300 nM

Question: `NCc1cc(Oc2cccc(C(=O)NC3COC3)c2)nc(C(F)(F)F)c1` [Compound 1-200, 3-((4-(Aminomethyl)-6-(trifluoromethyl)pyridin-2-yl)oxy)-N-(oxetan-3-yl)benzamide trifluoroacetate] was tested. Which IC50 did it give?
Answer: < 300 nM

Question: With `COc1cc(Oc2cc(CN)cc(C(F)(F)F)n2)cc(C(=O)N2C[C@@H](O)[C@H](F)C2)c1` (racemic) [Compound 1-232, Racemic-trans-(3-((4-(aminomethyl)-6-(trifluoromethyl)pyridin-2-yl)oxy)-5-methoxyphenyl)(3-fluoro-4-hydroxypyrrolidin-1-yl)methanone hydrochloride] as the compound, how does the IC50 read?
Answer: 300 to 1000 nM

Question: Which IC50 does the source give for `NCc1cc(OC2CCN(C(=O)Nc3ccccc3)CC2)nc(C(F)(F)F)c1` [Compound 1-41, 4-((4-(Aminomethyl)-6-(trifluoromethyl)pyridin-2-yl)oxy)-N-phenylpiperidine-1-carboxamide trifluoroacetate] here?
Answer: 300 to 1000 nM

Question: For `NCc1cc(O[C@H]2CCCN(C(=O)c3cccnc3)C2)nc(C(F)(F)F)c1` [Compound 1-49, (S)-(3-((4-(Aminomethyl)-6-(trifluoromethyl)pyridin-2-yl)oxy)piperidin-1-yl)(pyridin-3-yl)methanone trifluoroacetate], which IC50 is on record?
Answer: < 300 nM

Question: For `NCc1cc(Oc2cccc(-c3cn[nH]c3)c2)nc(C(F)(F)F)c1` [Compound 1-6, (2-(3-(1H-Pyrazol-4-yl)phenoxy)-6-(trifluoromethyl)pyridin-4-yl)methanamine trifluoroacetate], which IC50 is on record?
Answer: < 300 nM

Question: Which IC50 does the source give for `COC(=O)c1cccc(C(=O)Nc2cc(CN)cc(C(F)(F)F)n2)c1` [Compound 1-238, Methyl 3-((4-(aminomethyl)-6-(trifluoromethyl)pyridin-2-yl)carbamoyl)benzoate trifluoroacetate] here?
Answer: < 300 nM

Question: How did the IC50 turn out when `NCc1cc(OCc2cccc(C(=O)N3C[C@@H](O)[C@H](F)C3)c2)nc(C(F)(F)F)c1` (racemic) [Compound 1-36, Racemic-trans-(3-(((4-(aminomethyl)-6-(trifluoromethyl)pyridin-2-yl)oxy)methyl)phenyl)(3-fluoro-4-hydroxypyrrolidin-1-yl)methanone hydrochloride] was run?
Answer: < 300 nM

Question: With `CC(C)(O)CNC(=O)c1cccc(Oc2cc(CN)cc(C(F)(F)F)n2)c1` [Compound 1-32, 3-((4-(Aminomethyl)-6-(trifluoromethyl)pyridin-2-yl)oxy)-N-(2-hydroxy-2-methylpropyl)benzamide hydrochloride] as the compound, how does the IC50 read?
Answer: < 300 nM

Question: For `NCc1cc(Oc2cccc(C(=O)N3CC=CC3)c2)nc(C(F)(F)F)c1` [Compound 1-215, (3-((4-(Aminomethyl)-6-(trifluoromethyl)pyridin-2-yl)oxy)phenyl)(2,5-dihydro-1H-pyrrol-1-yl)methanone hydrochloride], which IC50 is on record?
Answer: < 300 nM

Question: `NCc1cc(Oc2cccc(C(=O)NCCn3cncn3)c2)nc(C(F)(F)F)c1` [Compound 1-14, N-(2-(1H-1,2,4-Triazol-1-yl)ethyl)-3-((4-(aminomethyl)-6-(trifluoromethyl)pyridin-2-yl)oxy)benzamide hydrochloride] was tested. Which IC50 did it give?
Answer: < 300 nM

Question: `CCOC(=O)CN1C(=O)CCc2c(Oc3cc(CN)cc(C(F)(F)F)n3)cccc21` [Compound 1-235, Ethyl 2-(5-((4-(aminomethyl)-6-(trifluoromethyl)pyridin-2-yl)oxy)-2-oxo-3,4-dihydroquinolin-1(2H)-yl)acetate] was tested. Which IC50 did it give?
Answer: 300 to 1000 nM

Question: With `NCc1cc(NC(=O)c2cccc(C(=O)N3CC[C@H](O)C3)c2)nc(C(F)(F)F)c1` [Compound 1-241, (S)—N-(4-(Aminomethyl)-6-(trifluoromethyl)pyridin-2-yl)-3-(3-hydroxypyrrolidine-1-carbonyl)benzamide trifluoroacetate] as the compound, how does the IC50 read?
Answer: < 300 nM

Question: How did the IC50 turn out when `NCc1cc(Oc2cccc(-c3ccccc3)c2)nc(C(F)(F)F)c1` [Compound 1-2, (2-([1,1′-Biphenyl]-3-yloxy)-6-(trifluoromethyl)pyridin-4-yl)methanamine trifluoroacetate] was run?
Answer: < 300 nM

Question: For `NCc1cc(Oc2cccc(C(=O)N3CC(n4cccn4)C3)c2)nc(C(F)(F)F)c1` [Compound 1-12, (3-(1H-Pyrazol-1-yl)azetidin-1-yl)(3-((4-(aminomethyl)-6-(trifluoromethyl)pyridin-2-yl)oxy)phenyl)methanone trifluoroacetate], which IC50 is on record?
Answer: < 300 nM

Question: `NCc1cc(Oc2cccc(C(=O)NCc3nn[nH]n3)c2)nc(C(F)(F)F)c1` [Compound 1-13, N-((2H-Tetrazol-5-yl)methyl)-3-((4-(aminomethyl)-6-(trifluoromethyl)pyridin-2-yl)oxy)benzamide hydrochloride] was tested. Which IC50 did it give?
Answer: < 300 nM

Question: How did the IC50 turn out when `NCc1cc(Oc2cccc(C(=O)N3CC4(CCOCC4)C3)c2)nc(C(F)(F)F)c1` [Compound 1-207, (3-((4-(Aminomethyl)-6-(trifluoromethyl)pyridin-2-yl)oxy)phenyl)(7-oxa-2-azaspiro[3.5]nonan-2-yl)methanone hydrochloride] was run?
Answer: < 300 nM

Question: For `NCc1cc(OCC2CCN(C(=O)Nc3ccccc3)CC2)nc(C(F)(F)F)c1` [Compound 1-42, 4-(((4-(Aminomethyl)-6-(trifluoromethyl)pyridin-2-yl)oxy)methyl)-N-phenylpiperidine-1-carboxamide trifluoroacetate], which IC50 is on record?
Answer: < 300 nM

Question: Which IC50 does the source give for `NCc1cc(Oc2cccc(C(=O)N3CC[C@H](F)C3)c2)nc(C(F)(F)F)c1` [Compound 1-213, (S)-(3-((4-(Aminomethyl)-6-(trifluoromethyl)pyridin-2-yl)oxy)phenyl)(3-fluoropyrrolidin-1-yl)methanone hydrochloride] here?
Answer: < 300 nM

Question: `NCc1cc(Oc2cccc(C(=O)N3CCC[C@H]3C(=O)O)c2)nc(C(F)(F)F)c1` [Compound 1-24, (S)-1-(3-((4-(Aminomethyl)-6-(trifluoromethyl)pyridin-2-yl)oxy)benzoyl)pyrrolidine-2-carboxylic acid hydrochloride] was tested. Which IC50 did it give?
Answer: > 1000 nM

Question: Which IC50 does the source give for `NCc1cc(O[C@H]2CCCN(C(=O)Nc3ccccc3)C2)nc(C(F)(F)F)c1` [Compound 1-44, (S)-3-((4-(Aminomethyl)-6-(trifluoromethyl)pyridin-2-yl)oxy)-N-phenylpiperidine-1-carboxamide trifluoroacetate] here?
Answer: < 300 nM
